The term IC50 denotes the midpoint of a concentration-inhibition curve.

This assay deals with T1, human metabotropic glutamate 7 receptor (hmGlu7) (Homo sapiens, UniProt Q14831).
T1 construct: expressed in transfected cells
T1 sequence (Q14831 35-922 isoform Q14831-2): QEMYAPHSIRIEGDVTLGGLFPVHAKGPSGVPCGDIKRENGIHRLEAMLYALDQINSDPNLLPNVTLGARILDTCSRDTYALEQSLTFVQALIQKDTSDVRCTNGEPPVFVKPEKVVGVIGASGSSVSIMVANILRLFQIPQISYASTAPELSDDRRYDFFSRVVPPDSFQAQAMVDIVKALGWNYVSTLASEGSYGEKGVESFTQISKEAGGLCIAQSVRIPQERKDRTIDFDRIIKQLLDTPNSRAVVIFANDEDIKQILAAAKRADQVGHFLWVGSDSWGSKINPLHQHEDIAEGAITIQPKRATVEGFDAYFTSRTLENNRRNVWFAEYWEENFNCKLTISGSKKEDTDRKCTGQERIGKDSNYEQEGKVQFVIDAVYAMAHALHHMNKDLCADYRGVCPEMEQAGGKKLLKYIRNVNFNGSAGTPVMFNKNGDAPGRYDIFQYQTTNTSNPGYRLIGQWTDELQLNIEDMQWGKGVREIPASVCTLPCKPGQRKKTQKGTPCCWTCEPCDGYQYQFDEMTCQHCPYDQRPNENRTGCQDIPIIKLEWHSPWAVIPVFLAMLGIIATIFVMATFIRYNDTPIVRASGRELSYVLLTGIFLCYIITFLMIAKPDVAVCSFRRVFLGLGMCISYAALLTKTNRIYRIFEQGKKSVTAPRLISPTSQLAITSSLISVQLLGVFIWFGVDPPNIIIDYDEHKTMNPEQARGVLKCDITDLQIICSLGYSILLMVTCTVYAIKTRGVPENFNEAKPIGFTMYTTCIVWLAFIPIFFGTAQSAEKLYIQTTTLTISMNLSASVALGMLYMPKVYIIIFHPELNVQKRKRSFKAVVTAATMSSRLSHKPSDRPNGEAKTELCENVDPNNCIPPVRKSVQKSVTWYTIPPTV
Put plainly: mGlu7 assay on HEK-expressing human mGlu7: fluorescent cell based Ca2+ mobilization assay (FLIPR), inhibition of EC80 L-AP4 response. The following applies: HEK-293 cells expressing hmGlu7; EC80 L-AP4 stimulation; mean of at least three independent experiments in duplicate; read-out: Ca2+ Flux (mean IC50). The source says:
mGlu7 Assay on HEK-Expressing Human mGlu7
The cDNA encoding the human metabotropic glutamate 7 receptor (hmGlu7), (accession number NM_181874.2, NCBI Nucleotide database browser), was subcloned into an expression vector containing also the hygromycin resistance gene. In parallel, the cDNA encoding a G protein allowing redirection of the activation signal to intracellular calcium flux was subcloned into a different expression vector containing also the Puromycin resistance gene. Transfection of both these vectors into HEK293 cells with PolyFect reagent (Qiagen) according to supplier's protocol, and hygromycin and puromycin treatment allowed selection of antibiotic resistant cells which had integrated stably one or more copies of the plasmids. Positive cellular clones expressing hmGlu7 were identified in a functional assay measuring changes in calcium fluxes in response to glutamate and L-AP4 or known mGlu7 orthosteric antagonists.
HEK-293 cells expressing hmGlu7 were maintained in media containing DMEM, Fetal Bovine Serum (10%), Glutamax™ (2 mM), penicillin (100 units/mL), streptomycin (100 μg/mL), geneticin (100 μg/mL) and hygromycin-B (40 μg/mL) and puromycin (1 μg/mL) at 37° C. with 5% CO2 in a humidified atmosphere.
Fluorescent Cell Based-Ca^2+ Mobilization Assay Human mGlu7 HEK-293 cells were plated out 24 hours prior to a fluorescent cell-based calcium mobilization assay using FLIPR^384 assay (Molecular Device, Sunnyvale, CA, USA) in black-walled, clear-bottomed, poly-L-ornithine-coated 384-well plates at a density of 25,000 cells/well in a glutamine/glutamate free DMEM medium containing fetal bovine serum (10%), penicillin (100 units/mL), streptomycin (100 μg/mL) and doxycyline (1 μg/ml) at 37° C. with 5% CO2 in a humidified atmosphere.
On the day of the assay, the medium was aspirated and the cells were loaded with a 3 μM solution of Fluo4-AM (LuBioScience, Lucerne, Switzerland) in 0.03% pluronic acid. After 1 hour at 37° C./5% CO2, the non incorporated dye was removed by washing cell plate with the assay buffer. All assays were performed in a pH 7.4 buffered-solution containing 20 mM HEPES, 143 mM NaCl, 6 mM KCl, 1 mM MgSO4, 1 mM CaCl2, 0.125 mM sulfinpyrazone and 0.1% glucose.
After 10 s of basal fluorescence recording, various concentrations of the compounds of the invention were added to the cells. Changes in fluorescence levels were first monitored for 180 s in order to detect any agonist activity of the compounds. Then the cells were stimulated by an EC80 L-AP4 concentration for an additional 110 s in order to measure inhibiting activities of the compounds of the invention. EC80 L-AP4 concentration is the concentration giving 80% of the maximal glutamate response.
The concentration-response curves of L-AP4 or representative compounds of the present invention were generated using the Prism GraphPad software (Graph Pad Inc, San Diego, USA). The curves were fitted to a four-parameter logistic equation: […]
allowing determination of IC50 values.
The Table 3 below represents the mean IC50 obtained from at least three independent experiments of selected molecules performed in duplicate.
In the case of `COc1ccc(-n2ncc3c(C)n(-c4ccccc4)c(C)c3c2=O)cn1` [1-52], the IC50 is 100 to 1000 nM.

Regarding `Cc1c2cnn(-c3ccccn3)c(=O)c2c(C)n1-c1ccccc1` [1-22], the IC50 lay within 1000 to 10000 nM. For `Cc1c2cnn(-c3ncccn3)c(=O)c2c(C)n1-c1cccc(N2CCC2)c1` [1-223], the IC50 lay in the range of 100 to 1000 nM. With `Cc1c2cnn(-c3ccccn3)c(=O)c2c(C)n1-c1cccc(-c2ccco2)c1` [1-136] the figure was less than 100 nM; with `COc1cccc(-n2c(C)c3cnn(-c4ccc(-c5ccccc5)cc4)c(=O)c3c2C)c1` [1-71], 100 to 1000 nM; with `COCc1cccc(-n2ncc3c(C)n(-c4cccc(OC)c4)c(C)c3c2=O)c1` [1-116], less than 100 nM. On to `Cc1c(O)cccc1-n1c(C)c2cnn(-c3ccc(N4CCOCC4)cc3)c(=O)c2c1C` [1-220], for which the IC50 is 1000 to 10000 nM. With `Cc1c2cnn(-c3ccc(S(C)(=O)=O)cc3)c(=O)c2c(C)n1-c1ccccc1` [1-30] the figure was 100 to 1000 nM; with `CC(=O)c1ccc(-n2c(C)c3cnn(-c4ccccn4)c(=O)c3c2C)cc1` [1-132], 1000 to 10000 nM; with `Cc1ccc(-n2ncc3c(C)n(-c4cccc(N5CCC5)c4)c(C)c3c2=O)cn1` [1-157], less than 100 nM. Turning to `Cc1c2cnn(-c3ccccc3)c(=O)c2c(C)n1-c1ccccc1F` [1-29], the IC50 fell in the range of 100 to 1000 nM. Regarding `Cc1c2cnn(-c3ccc(C(N)=O)cc3)c(=O)c2c(C)n1-c1ccccc1` [1-57], the IC50 lay in the range of 100 to 1000 nM.

With `COc1cc(-n2ncc3c(C)n(-c4cccc(N5CCC5)c4)c(C)c3c2=O)ccc1CO` [1-166], the IC50 was less than 100 nM. In the case of `COCc1ccc(-n2ncc3c(C)n(-c4cccc(N5CCOCC5)c4)c(C)c3c2=O)cc1` [1-69], the IC50 lay within 100 to 1000 nM. Consider `Cc1c2cnn(C34CC(C3)C4)c(=O)c2c(C)n1-c1cccc(N2CCC2)c1` [1-222], for which the IC50 lay in the range of 100 to 1000 nM. The figure for `COc1cccc(-n2c(C)c3cnn(-c4cccc(C(N)=O)c4)c(=O)c3c2C)c1` [1-73] is 100 to 1000 nM; for `Cc1c2cnn(-c3ccccn3)c(=O)c2c(C)n1-c1ccc2cc[nH]c2c1` [1-80] it is 1000 to 10000 nM; for `CCc1ccc(-n2c(C)c3cnn(-c4ccccn4)c(=O)c3c2C)cc1` [1-86] it is 100 to 1000 nM. The figure for `Cc1c2cnn(-c3ccncc3)c(=O)c2c(C)n1-c1ccccc1` [1-37] is 100 to 1000 nM; for `COc1ccc(-n2ncc3c(C)n(-c4cccc(OC)c4)c(C)c3c2=O)cc1` [1-97] it is less than 100 nM; for `COCc1cccc(-n2c(C)c3cnn(-c4ccccn4)c(=O)c3c2C)c1` [1-107] it is 1000 to 10000 nM.

As for `Cc1c2cnn(-c3ccc(N4CCOCC4)cc3)c(=O)c2c(C)n1-c1ccccc1` [1-93], the IC50 lay in the range of 100 to 1000 nM. On to `Cc1c2cnn(-c3ccc(N4CCNCC4)cc3)c(=O)c2c(C)n1-c1cccc(N2CCC2)c1` [1-174], for which the IC50 was less than 100 nM. The figure for `Cc1c2cnn(-c3ncccn3)c(=O)c2c(C)n1-c1ccccc1` [1-58] is 1000 to 10000 nM.

For the molecule `Cc1ccnc(-n2ncc3c(C)n(-c4cccc(N5CCC5)c4)c(C)c3c2=O)c1` [1-161], the IC50 was less than 100 nM. As to `COc1cccc(-n2c(C)c3cnn(-c4ccc(C)cn4)c(=O)c3c2C)c1` [1-172], the IC50 is 100 to 1000 nM.

In the case of `COc1ccc(-n2c(C)c3cnn(-c4ccc(CO)cc4)c(=O)c3c2C)cc1` [1-98], the IC50 lay within 100 to 1000 nM. With `COc1cccc(-n2c(C)c3cnn(-c4ccc(CO)cc4)c(=O)c3c2C)c1` [1-66] the figure was less than 100 nM. The figure for `COc1cccc(-n2c(C)c3cnn(-c4cc[nH]c(=O)c4)c(=O)c3c2C)c1` [1-129] is 100 to 1000 nM. The figure for `Cc1c2cnn(-c3ccccc3)c(=O)c2c(C)n1-c1cccc(N2CCOCC2)c1` [1-33] is 100 to 1000 nM. For the molecule `Cc1c2cnn(-c3ccc(CC(N)=O)cc3)c(=O)c2c(C)n1-c1cccc(N2CCC2)c1` [1-185], the IC50 is less than 100 nM. The figure for `COCc1cccc(-n2c(C)c3cnn(-c4ccccc4)c(=O)c3c2C)c1` [1-108] is 100 to 1000 nM; for `CC(=O)NCc1ccc(-n2ncc3c(C)n(-c4ccccc4)c(C)c3c2=O)cc1` [1-104] it is 100 to 1000 nM.

Turning to `Cc1c2cnn(-c3ncc(F)cn3)c(=O)c2c(C)n1-c1cc(N2CCC2)ccc1F` [1-218], the IC50 is 100 to 1000 nM. The figure for `Cc1c2cnn(-c3ccc(CCO)cc3)c(=O)c2c(C)n1-c1cccc(N2CCC2)c1` [1-169, 6-(3-(Azetidin-1-yl)phenyl)-2-(4-(2-hydroxyethyl)phenyl)-5,7-dimethyl-2,6-dihydro-1H-pyrrolo[3,4-d]pyridazin-1-one] is less than 100 nM; for `Cc1ccc(-n2ncc3c(C)n(-c4ccccc4)c(C)c3c2=O)cn1` [1-50] it is 100 to 1000 nM; for `Cc1c2cnn(-c3ccccn3)c(=O)c2c(C)n1-c1cccc(C(F)(F)F)c1` [1-53] it is 100 to 1000 nM. With `CCOc1ccc(-n2ncc3c(C)n(-c4ccccc4)c(C)c3c2=O)cc1` [1-60] the figure was 100 to 1000 nM; with `COc1ccccc1-n1c(C)c2cnn(-c3ccccn3)c(=O)c2c1C` [1-193], 1000 to 10000 nM; with `COc1ccc(F)c(-n2c(C)c3cnn(-c4ccccn4)c(=O)c3c2C)c1` [1-194], 100 to 1000 nM. The figure for `Cc1cccc(-n2ncc3c(C)n(-c4cccc(N5CCOCC5)c4)c(C)c3c2=O)c1` [1-84] is 1000 to 10000 nM; for `COc1cc(OC)cc(-n2c(C)c3cnn(-c4ccccn4)c(=O)c3c2C)c1` [1-175] it is 100 to 1000 nM; for `COc1ccc(-n2c(C)c3cnn(-c4cccc(C#N)c4)c(=O)c3c2C)cc1` [1-125] it is 100 to 1000 nM. `Cc1c2cnn(-c3ncccc3F)c(=O)c2c(C)n1-c1cc(F)cc(N2CCC2)c1` [1-209]: the IC50 is less than 100 nM.

On to `Cc1ccc(-n2c(C)c3cnn(-c4ccccc4)c(=O)c3c2C)cc1` [1-1], for which the IC50 is less than 100 nM. With `COc1ccc(-n2ncc3c(C)n(-c4cccc(N5CCC5)c4)c(C)c3c2=O)cc1CO` [1-163] the figure was less than 100 nM; with `Cc1ccc(-n2c(C)c3cnn(-c4ccccc4)c(=O)c3c2C)c(C)c1` [1-32], 100 to 1000 nM; with `Cc1c2cnn(-c3ccccn3)c(=O)c2c(C)n1-c1ccc2c(c1)OCO2` [1-55], 100 to 1000 nM. `Cc1cnc(-n2ncc3c(C)n(-c4cccc(OC5CC5)c4C)c(C)c3c2=O)nc1` [1-205]: the IC50 was less than 100 nM.

In the case of `CCc1c2c(=O)n(-c3ccccn3)ncc2c(C)n1-c1cccc(OC)c1` [1-78], the IC50 is 100 to 1000 nM. With `COc1cccc(-n2c(C)c3cnn(-c4ncccn4)c(=O)c3c2C)c1F` [1-234], the IC50 lay within 100 to 1000 nM. As to `Cc1c(OC(F)F)cccc1-n1c(C)c2cnn(-c3ccccn3)c(=O)c2c1C` [1-232], the IC50 is 100 to 1000 nM. With `Cc1ccc(-n2ncc3c(C)n(-c4ccccc4)c(C)c3c2=O)cc1` [1-15] the figure was less than 100 nM; with `Cc1c2cnn(-c3cccc(S(C)(=O)=O)c3)c(=O)c2c(C)n1-c1cccc(N2CCC2)c1` [1-151], less than 100 nM; with `COc1ccccc1-n1ncc2c(C)n(-c3cccc(N4CCC4)c3)c(C)c2c1=O` [1-176], 100 to 1000 nM. The figure for `Cc1cccc(-n2c(C)c3cnn(-c4ccccn4)c(=O)c3c2C)c1` [1-45] is 100 to 1000 nM.

Regarding `Cc1c2cnn(-c3ccccn3)c(=O)c2c(C)n1-c1cccc(OC(C)C)c1` [1-139], the IC50 lay in the range of 100 to 1000 nM. Take `COc1cccc(-n2c(C)c3cnn(-c4cccc(OC)n4)c(=O)c3c2C)c1` [1-74]: the IC50 was in the range of 1000 to 10000 nM. The figure for `Cc1c2cnn(-c3ccccn3)c(=O)c2c(C)n1-c1cccc(N2CCCCC2)c1` [1-143] is less than 100 nM; for `COc1cccc(-n2c(C)c3cnn(-c4ccc(OC)nc4)c(=O)c3c2C)c1` [1-127] it is 100 to 1000 nM. With `Cc1c2cnn(-c3ncccc3F)c(=O)c2c(C)n1-c1cc(N2CCC2)ccc1F` [1-217] the figure was less than 100 nM; with `Cc1c2cnn(-c3ccccc3)c(=O)c2c(C)n1-c1ccccc1Cl` [1-19], 100 to 1000 nM. `COc1ccc(-n2c(C)c3cnn(-c4ccc(CNC(C)=O)cc4)c(=O)c3c2C)cc1` [1-106]: the IC50 is 100 to 1000 nM.

For the origin of these results see patent US20240262833A1, “FUSED HETEROCYCLIC DERIVATIVES AS NEGATIVE ALLOSTERIC MODULATORS OF MGLU7 RECEPTOR” (Addex Pharma S.A., priority 2021, published 2024).
